Measured values taken from patent publication US20250155433A1, “FLUORESCENT SENSORS FOR DETECTION OF SIDEROPHORES AND OTHER MOLECULES PRODUCED BY BACTERIAL PATHOGENS” (Kansas State University Research Foundation, priority 2021, published 2025).

Assays:
[1] = molecular target: KpnIroN (Klebsiella pneumoniae, UniProt A0ACD7U953, T234C); assay: Fluorescence quenching binding to KpnIroN-FM sensor; conditions: read-out: Affinity (KD) of sensor KpnIroN, apo siderophore; apo (parenthetic value); T210C
Description: (§1) Fluorescence modifications. For modifications with maleimide fluorophores, we inoculated E. coli strains OKN3, OKN13, OKN359 or OKN1359, harboring plasmids that encoded a Cys mutant LGP, from frozen stocks into LB, grew them overnight and sub-cultured at 1% into iron-deficient MOPS minimal media, with shaking (200 rpm) at 37° C. for 10-12 h, until late exponential phase. After collecting the cells by centrifugation at 7500×g for 15 min, and washing with 50 mM NaHPO4, pH 6.7, we labeled the Cys-mutant LGP with 5 μM FM in 50 mM NaHPO4, pH 6.7 for 15 min at 37° C. FM. We terminated the labeling reactions with 100 μM β-mercaptoethanol. […] After electrophoresis, we first visualized the fluorescence labeling on a Typhoon 8600 Biomolecular Scanner (GE/Amersham), and then stained the gels with Coomassie blue R (153).
(§2) Fluorescence spectroscopic binding determinations. We observed fluorophore-labeled cells in an SLM AMINCO 8100 fluorescence spectrometer, upgraded with an OLIS operating system and software (OLIS SpectralWorks, OLIS Inc., Bogart, GA), to control its shutters, polarizers and data collection. We also utilized an OLIS Clarity fluorescence spectrometer for fluorescence assays. […] We performed each measurement in triplicate and calculated the mean value of F/F0 at each ligand concentration. […]

[2] = molecular target: KpnFepA4984 (Klebsiella pneumoniae, UniProt A0ACD7TVS5, A414C); assay: Fluorescence quenching binding to KpnFepA4984-FM sensor; conditions: read-out: Affinity (KD) of sensor KpnFepA 4984, apo siderophore; apo (parenthetic value); A390C
Description: as §1, §2

[3] = molecular target: T1, EcoFepB (Escherichia coli, UniProt P0AEL6, T297C); assay: biochemical; type: binding
T1 construct: adds a 6H-tag at either the N- or C-termini of the mature proteins; 6-His (N); made in house; host or cells: E. coli BL21 (pET28), IPTG-induced; purified on Talon Superflow
From the text: Cys Mutant protein expression and fluorescent labeling. The vector for LGP production, pITS23, carries wild-type EcofepA under control of its native, Fur-regulated promoter. For expression of each of the E. coli LGP (Fiu, FhuA, IutA, Cir, BtuB) we replaced EcofepA in pITS23 with the alternate LGP structural gene, with its own signal sequence, such that the iron-regulated EcofepA promoter-controlled biosynthesis. For LGP from of other species (KpnFepA, KpnIroN, KpnFyuA, AbaBauA, PaeFepA, PaeFpvA, CcrHutA), we replaced the sequence encoding mature EcoFepA with the sequence encoding the foreign mature LGP, downstream from the EcoFepA signal sequence, and regulated by the EcofepA promoter. […] We evaluated the expression and labeling of each of the cloned LGP by growing the appropriate E. coli host strain (OKN3, OKN359, OKN13 or OKN1359), harboring the plasmid constructs of interest, in iron-deficient MOPS medium to late log phase (A600 nm=2.5-3.5). We subsequently analyzed SDS-PAGE resolved samples of bacterial OM, or purified protein fractions, for fluorescence emissions at […] before staining with Coomassie blue R (FIGS. 7, 8, 9). In some cases, we used mouse monoclonal (α-EcoFepA) antibodies or rabbit polyclonal (α-FepB) antisera to determine the expression levels and stoichiometry of FM-labeling, which allowed quantification of expression. […]

[4] = molecular target: KpnFepA1658 (Klebsiella pneumoniae, UniProt A6T631, A407C); assay: Fluorescence quenching binding to KpnFepA1658-FM sensor; conditions: read-out: Affinity (KD) of sensor KpnFepA 1658, apo siderophore; apo (parenthetic value); A382C
Description: as §1, §2

[5] = molecular target: T2, EcoFepA (Escherichia coli, UniProt P05825, A720C); assay: biochemical; type: binding
T2 construct: expressed in transfected cells; host or cells: E. coli OKN3/OKN13/OKN359/OKN1359 carrying pITS23 (fepA under its own promoter)
Description: Fluorescence modifications. For modifications with maleimide fluorophores, we inoculated E. coli strains OKN3, OKN13, OKN359 or OKN1359, harboring plasmids that encoded a Cys mutant LGP, from frozen stocks into LB, grew them overnight and sub-cultured at 1% into iron-deficient MOPS minimal media, with shaking (200 rpm) at 37° C. for 10-12 h, until late exponential phase. After collecting the cells by centrifugation at 7500×g for 15 min, and washing with 50 mM NaHPO4, pH 6.7, we labeled the Cys-mutant LGP with 5 μM FM in 50 mM NaHPO4, pH 6.7 for 15 min at 37° C. FM. We terminated the labeling reactions with 100 μM β-mercaptoethanol. After collecting the fluoresceinated cells by centrifugation at 7500×g for 15 min, and washing with 50 mM NaHPO4, pH 6.7, we re-suspended them in PBS plus 0.2% glucose. We either immediately used the labeled cells in spectroscopic experiments, or rested them on ice (up to 24 h), or added glycerol to 15% and stored them (indefinitely) as 1 mL aliquots at −70° C. In the latter case, after thawing the labeled cells we pelleted them by centrifugation in a microfuge, washed them once with and re-suspended them in PBS containing 0.2% glucose. Lastly, for evaluation of protein expression or the extent of FM-labeling we solubilized aliquots of the cell suspensions with sample buffer, and subjected them to SDS-PAGE. After electrophoresis, we first visualized the fluorescence labeling on a Typhoon 8600 Biomolecular Scanner (GE/Amersham), and then stained the gels with Coomassie blue R (153).
Fluorescence spectroscopic binding determinations. We observed fluorophore-labeled cells in an SLM AMINCO 8100 fluorescence spectrometer, upgraded with an OLIS operating system and software (OLIS SpectralWorks, OLIS Inc., Bogart, GA), to control its shutters, polarizers and data collection. We also utilized an OLIS Clarity fluorescence spectrometer for fluorescence assays. For binding determinations we deposited 2.5×10^7 labeled cells in a quartz cuvette (final volume, 2 mL) with stirring at 37° C., measured the initial fluorescence (F0), and then added increasing concentrations of an iron complex while monitoring the quenching of fluorescence emissions (F) at 520 nm. We performed each measurement in triplicate and calculated the mean value of F/F0 at each ligand concentration. We plotted 1−F/F0 vs [ligand] and analyzed the data by the 1-site binding model of Grafit 6.0.12 (Erithacus Ltd. West Sussex, UK), that fits data to a single site saturation curve, where the amount of ligand bound is plotted as a function of the amount free:
These plots yielded KD values for each of the receptor-ligand interactions, with associated standard errors.
Table 1 lists KD values from analysis of fluorescence quenching with ferric or apo (parenthetic values) siderophores or porphyrins. For each determination, we measured the extent of fluorescence quenching of an FLGP, when exposed to sequentially increasing concentrations of the listed metal complexes, as plotted in FIGS. 2-4. We performed each experiment 2 or 3 times. The tabulated KD values are from single, representative experiments, in which we collected each data point in triplicate, plotted F/F0 vs [ligand] for each quenching titration, and fitted the curves to a single site binding model using Grafit 6.012 (Erithacus Ltd, […], UK).

[6] = molecular target: T3, PaeFepA (Pseudomonas aeruginosa, UniProt Q05098, S296C); assay: Fluorescence quenching binding to PaeFepA-FM sensor
T3 construct: expressed in transfected cells; host or cells: E. coli OKN3/OKN13/OKN359/OKN1359 carrying a pITS23 derivative
Description: as §1, §2

[7] = molecular target: CcrHutA; assay: Fluorescence quenching binding to CcrHutA-FM sensor; parameters: species or system Caulobacter crescentus; conditions: porphyrins; Cys residue A635C, FM-labeled; NB = no binding; read-out: Affinity (KD) of sensor CcrHutA
Description: as §1, §2

[8] = molecular target: T4, HsaSCN (human siderocalin) (Homo sapiens, UniProt P80188, Q148C); assay: Fluorescence quenching binding to purified HsaSCN-FM sensor; conditions: ferric complexes and porphyrins; Cys residue Q128C, FM-labeled purified protein; NB = no binding; read-out: Affinity (KD) of sensor HsaSCN
T4 construct: adds a 6H-tag at either the N- or C-termini of the mature proteins; 6-His (N); made in house; host or cells: E. coli BL21 (pET28), IPTG-induced; purified on Talon Superflow
T4 sequence (P80188 21-198 Q148C): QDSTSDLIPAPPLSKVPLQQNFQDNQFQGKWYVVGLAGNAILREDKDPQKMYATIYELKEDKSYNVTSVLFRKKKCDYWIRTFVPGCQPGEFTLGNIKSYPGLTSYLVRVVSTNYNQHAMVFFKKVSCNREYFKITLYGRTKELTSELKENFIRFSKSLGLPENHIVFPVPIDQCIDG

T2 sequence (P05825 23-746 A720C): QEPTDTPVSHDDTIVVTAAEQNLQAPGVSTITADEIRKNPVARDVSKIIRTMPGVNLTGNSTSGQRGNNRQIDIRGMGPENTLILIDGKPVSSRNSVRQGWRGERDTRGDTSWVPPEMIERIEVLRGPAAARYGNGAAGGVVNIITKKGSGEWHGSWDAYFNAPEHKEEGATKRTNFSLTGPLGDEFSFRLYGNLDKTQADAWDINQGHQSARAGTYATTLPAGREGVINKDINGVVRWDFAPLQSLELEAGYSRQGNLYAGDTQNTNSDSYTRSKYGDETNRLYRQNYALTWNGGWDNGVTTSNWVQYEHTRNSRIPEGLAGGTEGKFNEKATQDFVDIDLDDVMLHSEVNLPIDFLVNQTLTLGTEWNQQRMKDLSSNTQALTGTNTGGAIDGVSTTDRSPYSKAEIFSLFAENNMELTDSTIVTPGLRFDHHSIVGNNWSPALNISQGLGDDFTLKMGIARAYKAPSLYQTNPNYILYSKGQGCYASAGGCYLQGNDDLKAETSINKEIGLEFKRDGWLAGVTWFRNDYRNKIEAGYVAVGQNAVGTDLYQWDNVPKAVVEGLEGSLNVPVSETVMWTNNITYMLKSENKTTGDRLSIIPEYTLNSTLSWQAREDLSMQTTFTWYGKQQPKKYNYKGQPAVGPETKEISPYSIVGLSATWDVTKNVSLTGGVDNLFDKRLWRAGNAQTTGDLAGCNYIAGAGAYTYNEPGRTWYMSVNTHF
T1 sequence (P0AEL6 27-318 T297C): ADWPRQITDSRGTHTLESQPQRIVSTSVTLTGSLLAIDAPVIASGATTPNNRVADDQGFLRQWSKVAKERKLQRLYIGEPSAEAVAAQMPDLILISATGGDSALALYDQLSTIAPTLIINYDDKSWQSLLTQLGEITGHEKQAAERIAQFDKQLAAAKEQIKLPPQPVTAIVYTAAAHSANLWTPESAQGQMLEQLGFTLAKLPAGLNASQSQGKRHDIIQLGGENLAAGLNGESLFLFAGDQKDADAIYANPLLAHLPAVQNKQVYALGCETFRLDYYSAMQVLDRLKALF

Work on `O=C(N[C@H]1COC(=O)[C@@H](NC(=O)c2cccc(O)c2O)COC(=O)[C@@H](NC(=O)c2cccc(O)c2O)COC1=O)c1cccc(O)c1O` [Ent, enterobactin] yielded a Kd [1] of 40 nM, a Kd [2] of 3300 nM and a Kd [3] of 6000 nM. It also gave a Kd [4] of 70 nM, a Kd ([5]; Affinity (KD) of sensor EcoFepA, apo siderophore, apo (parenthetic value), A698C) of 30 nM and a Kd ([5]; KD, EcoFepA / EcoFepA-FM) of 43 nM. The Kd [6] was 1700 nM.

Compound hemin [Hn] has a Kd [7] of 150 nM and a Kd [8] of 340 nM.
